Data on 21 compounds can be found in patent US11524966B1 (Valo Early Discovery, Inc., priority 2017, dated 2022).

In this assay the target is T1, USP28 (His-tagged USP28-FL-mammalian) (Homo sapiens, UniProt Q96RU2).
T1 construct: Expression of USP28 (1-1077)-TEV-6*His (pTT5 vector); made in house; host or cells: Expi293f cells (pTT5 vector)
T1 sequence (Q96RU2 1-1077): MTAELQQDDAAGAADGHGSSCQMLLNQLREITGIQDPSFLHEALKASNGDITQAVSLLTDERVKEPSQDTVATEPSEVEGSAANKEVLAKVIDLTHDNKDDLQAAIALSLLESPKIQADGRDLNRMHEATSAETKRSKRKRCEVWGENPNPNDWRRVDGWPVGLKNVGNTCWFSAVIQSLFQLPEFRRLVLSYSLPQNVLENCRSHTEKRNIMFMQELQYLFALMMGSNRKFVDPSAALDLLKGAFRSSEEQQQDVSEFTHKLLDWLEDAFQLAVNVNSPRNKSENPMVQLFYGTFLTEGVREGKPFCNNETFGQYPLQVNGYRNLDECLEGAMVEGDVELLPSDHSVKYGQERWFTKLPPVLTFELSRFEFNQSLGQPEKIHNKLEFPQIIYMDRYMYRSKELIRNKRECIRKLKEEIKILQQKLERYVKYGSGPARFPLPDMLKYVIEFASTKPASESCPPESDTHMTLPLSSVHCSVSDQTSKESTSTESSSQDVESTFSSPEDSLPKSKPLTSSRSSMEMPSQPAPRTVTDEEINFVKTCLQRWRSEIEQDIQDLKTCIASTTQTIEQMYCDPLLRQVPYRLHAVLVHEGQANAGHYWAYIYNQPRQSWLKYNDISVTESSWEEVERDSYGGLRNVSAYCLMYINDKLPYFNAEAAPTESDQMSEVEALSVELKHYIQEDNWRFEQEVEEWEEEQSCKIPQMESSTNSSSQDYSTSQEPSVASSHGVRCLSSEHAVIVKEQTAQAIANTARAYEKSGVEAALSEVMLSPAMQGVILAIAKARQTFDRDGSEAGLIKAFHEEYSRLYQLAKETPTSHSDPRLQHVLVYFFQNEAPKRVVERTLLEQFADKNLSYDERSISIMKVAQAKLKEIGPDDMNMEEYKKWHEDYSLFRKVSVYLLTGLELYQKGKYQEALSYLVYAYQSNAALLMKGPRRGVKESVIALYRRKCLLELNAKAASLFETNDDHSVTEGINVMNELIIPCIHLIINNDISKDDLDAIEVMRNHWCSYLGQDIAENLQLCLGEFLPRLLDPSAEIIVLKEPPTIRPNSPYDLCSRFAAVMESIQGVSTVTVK
Description: Ubiquitin-Rhodamine 110 Assay for USP28 Activity, Example A-1(a). The conditions noted are these: Ubiquitin-Rhodamine 110 assay, Example A-1(a); read-out: USP28 A-1(a) IC50 range. The class given is biochemical. The procedure, abridged:
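Full-length His-tagged human USP28 (1-1077, Expi293f-expressed), […], with 25 nM Ub-Rh110 (<<Km) in pH 8.0 Tris buffer with BME, BGG, Triton X-100. 10-point dilutions (25 μM-1.3 nM), 45 min at room temperature, citric acid stop, fluorescence 485/535 nm; IC50 by 4-parameter fit.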
One may read the IC50 as the concentration that gives 50% inhibition. On to `CO[C@H]1CCN(c2ccc3c(c2)OC[C@H](NC(=O)c2sc4nc(C)cc(C)c4c2N)C3)C[C@@H]1N` [Example 317, 3-amino-N-[(3R)-7-[(3S,4S)-3-amino-4-methoxypiperidin-1-yl]-3,4-dihydro-2H-1-benzopyran-3-yl]-4,6-dimethylthieno[2,3-b]pyridine-2-carboxamide], for which the IC50 was in the range of 1 to 50 nM. Turning to `Cc1ccc2c(N)c(C(=O)N[C@H]3COc4cc(N5CC[C@@H](N)C5)ccc4C3)sc2n1` [Example 288, 3-amino-N-[(3R)-7-[(3R)-3-aminopyrrolidin-1-yl]-3,4-dihydro-2H-1-benzopyran-3-yl]-6-methylthieno[2,3-b]pyridine-2-carboxamide], the IC50 fell in the range of 1 to 50 nM. Then `COC[C@@H]1CN(c2ccc3c(n2)CC[C@H](NC(=O)c2sc4nc(C)cnc4c2N)C3)C[C@@H]1N` [Example 298, 7-amino-N-[(6S)-2-[(3R,4R)-3-amino-4-(methoxymethyl)pyrrolidin-1-yl]-5,6,7,8-tetrahydroquinolin-6-yl]-3-methylthieno[2,3-b]pyrazine-6-carboxamide], with 200 to 2000 nM; and `Cc1ccc2c(N)c(C(=O)N[C@H]3CCc4nc(N5C[C@H]6NCCC(F)(F)[C@H]6C5)ccc4C3)sc2n1` [Example 329, N-[(6S)-2-[(4aS,7aS)-4,4-difluoro-octahydro-1H-pyrrolo[3,4-b]pyridin-6-yl]-5,6,7,8-tetrahydroquinolin-6-yl]-3-amino-6-methylthieno[2,3-b]pyridine-2-carboxamide], with 50 to 200 nM. For the compound `CCO[C@H]1CN(c2ccc3c(c2)OC[C@H](NC(=O)c2sc4nc(C)cc(C)c4c2N)C3)C[C@H]1N` [Example 324, 3-amino-N-[(3R)-7-[(3R,4S)-3-amino-4-ethoxypyrrolidin-1-yl]-3,4-dihydro-2H-1-benzopyran-3-yl]-4,6-dimethylthieno[2,3-b]pyridine-2-carboxamide], the IC50 fell in the range of 50 to 200 nM. For `CO[C@@]1(C)CN(c2ccc3c(n2)CC[C@H](NC(=O)c2sc4nc(C)cnc4c2N)C3)C[C@@H]1N` [Example 279, 7-amino-N-[(6S)-2-[(3S,4S)-4-amino-3-methoxy-3-methylpyrrolidin-1-yl]-5,6,7,8-tetrahydroquinolin-6-yl]-3-methylthieno[2,3-b]pyrazine-6-carboxamide] the value was 200 to 2000 nM; for `N#Cc1c(N2CC3CCC(C2)N3)cc2c(c1F)C[C@@H](NC(=O)c1cnc3c(c1)[C@@H]1C[C@@H]1CN3)CO2` [Example 264, (6aS,7aR)-N-[(3R)-6-cyano-7-{3,8-diazabicyclo[3.2.1]octan-3-yl}-5-fluoro-3,4-dihydro-2H-1-benzopyran-3-yl]-5H,6H,6aH,7H,7aH-cyclopropa[c]1,8-naphthyridine-2-carboxamide], 1 to 50 nM. Then `COC[C@@H]1CN(c2ccc3c(c2)OC[C@H](NC(=O)c2sc4nc(C)cc(C)c4c2N)C3)C[C@@H]1N` [Example 275, 3-amino-N-[(3R)-7-[(3R,4R)-3-amino-4-(methoxymethyl)pyrrolidin-1-yl]-3,4-dihydro-2H-1-benzopyran-3-yl]-4,6-dimethylthieno[2,3-b]pyridine-2-carboxamide], with 1 to 50 nM. Then `CO[C@H]1[C@H](N)CN(c2ccc3c(c2)OC[C@H](NC(=O)c2sc4nc(C)ccc4c2N)C3)[C@H]1C` [Example 334, 3-amino-N-[(3R)-7-[(2S,3S,4R)-4-amino-3-methoxy-2-methylpyrrolidin-1-yl]-3,4-dihydro-2H-1-benzopyran-3-yl]-6-methylthieno[2,3-b]pyridine-2-carboxamide], with 1 to 50 nM; and `CN[C@H]1CN(c2ccc3c(n2)CC[C@H](NC(=O)c2sc4nc(C)cc(C)c4c2N)C3)C[C@@H]1OC` [Example 312, 3-amino-N-[(6S)-2-[(3S,4S)-3-methoxy-4-(methylamino)pyrrolidin-1-yl]-5,6,7,8-tetrahydroquinolin-6-yl]-4,6-dimethylthieno[2,3-b]pyridine-2-carboxamide], with 50 to 200 nM. For the compound `CO[C@H]1[C@H](N)CN(c2ccc3c(c2)OC[C@H](NC(=O)c2sc4nc(C)ccc4c2N)C3)[C@@H]1C` [Example 284, 3-amino-N-[(3R)-7-[(2R,3S,4R)-4-amino-3-methoxy-2-methylpyrrolidin-1-yl]-3,4-dihydro-2H-1-benzopyran-3-yl]-6-methylthieno[2,3-b]pyridine-2-carboxamide], the 50% inhibitory concentration (IC50) fell in the range of 1 to 50 nM.

On to `COC[C@@]1(C)CN(c2ccc3c(n2)CC[C@H](NC(=O)c2sc4nc(C)ccc4c2N)C3)C[C@@H]1N` [Example 341, 3-amino-N-[(6S)-2-[(3S,4R)-4-amino-3-(methoxymethyl)-3-methylpyrrolidin-1-yl]-5,6,7,8-tetrahydroquinolin-6-yl]-6-methylthieno[2,3-b]pyridine-2-carboxamide], for which the 50% inhibitory concentration (IC50) was 50 to 200 nM. Take `COC[C@@H]1C[C@H](N)CN1c1ccc2c(c1)OC[C@H](NC(=O)c1sc3nc(C)ccc3c1N)C2` [Example 263, 3-amino-N-[(3R)-7-[(2S,4S)-4-amino-2-(methoxymethyl)pyrrolidin-1-yl]-3,4-dihydro-2H-1-benzopyran-3-yl]-6-methylthieno[2,3-b]pyridine-2-carboxamide]: the IC50 was in the range of 1 to 50 nM.

Regarding `COC[C@H]1C[C@@H](N)CN1c1ccc2c(c1)OC[C@H](NC(=O)c1sc3nc(C)ccc3c1N)C2` [Example 262, 3-amino-N-[(3R)-7-[(2R,4R)-4-amino-2-(methoxymethyl)pyrrolidin-1-yl]-3,4-dihydro-2H-1-benzopyran-3-yl]-6-methylthieno[2,3-b]pyridine-2-carboxamide], the IC50 lay within 1 to 50 nM.

Take `Cc1ccc2c(N)c(C(=O)N[C@H]3COc4cc(N5C[C@H](N)[C@]6(CCO6)C5)ccc4C3)sc2n1` [Example 340, 3-amino-N-[(3R)-7-[(4S,8S)-8-amino-1-oxa-6-azaspiro[3.4]octan-6-yl]-3,4-dihydro-2H-1-benzopyran-3-yl]-6-methylthieno[2,3-b]pyridine-2-carboxamide]: the IC50 lay within 1 to 50 nM. Then `CN[C@H]1CN(c2ccc3c(n2)CC[C@H](NC(=O)c2sc4nc(C)ccc4c2N)C3)C[C@@]1(C)O` [Example 331, 3-amino-N-[(6S)-2-[(3R,4S)-3-hydroxy-3-methyl-4-(methylamino)pyrrolidin-1-yl]-5,6,7,8-tetrahydroquinolin-6-yl]-6-methylthieno[2,3-b]pyridine-2-carboxamide], with 50 to 200 nM; and `CO[C@H]1CN(c2ccc3c(n2)CC[C@H](NC(=O)c2sc4nc(C)cc(C)c4c2N)C3)C[C@@H]1NC(C)=O` [Example 293, 3-amino-N-[(6S)-2-[(3S,4S)-3-acetamido-4-methoxypyrrolidin-1-yl]-5,6,7,8-tetrahydroquinolin-6-yl]-4,6-dimethylthieno[2,3-b]pyridine-2-carboxamide], with 50 to 200 nM. Then `Cc1ccc2c(N)c(C(=O)N[C@H]3COc4cc(N5C[C@@H](N)[C@]6(CCCO6)C5)ccc4C3)sc2n1` [Example 309, 3-amino-N-[(3R)-7-[(5S,9R)-9-amino-1-oxa-7-azaspiro[4.4]nonan-7-yl]-3,4-dihydro-2H-1-benzopyran-3-yl]-6-methylthieno[2,3-b]pyridine-2-carboxamide], with 1 to 50 nM. For `COC[C@H]1CN(c2nc3c(cc2F)C[C@@H](NC(=O)c2sc4nc(C)ccc4c2N)CC3)C[C@H]1N` [Example 301, 3-amino-N-[(6S)-2-[(3S,4S)-3-amino-4-(methoxymethyl)pyrrolidin-1-yl]-3-fluoro-5,6,7,8-tetrahydroquinolin-6-yl]-6-methylthieno[2,3-b]pyridine-2-carboxamide] the value was above 2000 nM; for `Cc1ccc2c(N)c(C(=O)N[C@H]3COc4cc(N5C[C@@H](F)[C@@H](N)C5)ccc4C3)sc2n1` (single isomer, unassigned) [Example 3-6], 1 to 50 nM; for `CO[C@@H]1CN(c2ccc3c(n2)CC[C@H](NC(=O)c2sc4nc(C)ccc4c2N)C3)C[C@@H]1N` [Example 269, 3-amino-N-[(6S)-2-[(3S,4R)-3-amino-4-methoxypyrrolidin-1-yl]-5,6,7,8-tetrahydroquinolin-6-yl]-6-methylthieno[2,3-b]pyridine-2-carboxamide], 50 to 200 nM.
